# Structures can show the parent of a compound that is named as a salt.
# Tests used:
# Rats = test: anti-inflammatory activity, carrageenan paw; assay type: in vivo, rat; settings: 10 mg/kg, swelling after 3 hours; for Carrageenan Paw (% inh) i.p.: 30 min before carrageenan; for Carrageenan Paw (% inh) p.o.: 1 h before carrageenan
# Method: Carrageenan (Type λ) was suspended in sterile PBS at 1% (w/v), autoclaved for 30 minutes, and stored at room temperature. Rats were pretreated with vehicle or AK inhibitor (10 mg/kg) by oral gavage or i.p. administration and the volume of the left hind paw was measured using a water displacement plethysmometer (Stoelting Co., Wood Dale, Ill.). One hour after oral treatment or 30 minutes after i.p. treatment, the rats were briefly anaesthetized, and 0.1 ml of the carrageenan solution was injected subcutaneously into the planar surface of the left hind paw. The ensuing paw swelling was measured by plethysmometry after 3 hours. The paw volume in milliliters was subtracted from the pre-injection paw volume. Data are presented in Table 8 as the percent inhibition of paw swelling in AK inhibitor treated animals, compared to vehicle treated control animals.
# adenosine kinase = adenosine kinase (AK) inhibition; assay type: biochemical, pig heart or recombinant human; settings: 0.5 μM [U-14C] adenosine, pH 7.0, 20 minutes
# Method: Adenosine kinase activity was measured essentially as described by Yamada et al. (Yamada, Y., Goto, H., Ogasawara, N. (1988) Biochim. Biophys. Acta 660, 36-43.) with a few minor modifications. […] Natl. Acad. Sci. […] The reactions were incubated for 20 minutes at […] The assay was quenched upon spotting 30 μL aliquots onto 2 cm^2 pieces of Whatman DE81 anion exchange paper. The papersquares were washed for 3 minutes in 6 L distilled/deionized water to remove the unreacted adenosine. The washed squares were rinsed in 95% ethanol and dried in an oven at 100° C. for 10 minutes. The amount of ^14 C-AMP was quantified by scintillation counting.
# Female SA rats = test: liver toxicity, serum SGOT, SGPT and total bilirubin; assay type: in vivo, rat; design: unit not given here; settings: 2 x 37.5 μmol/kg i.v. infusion (total 75 μmol/kg), 12 h after second dose
# Method: Female SA rats (150-200 g) were anesthetized with halothane and cannulated via the internal jugular vein. The animals were allowed to recover for 3 days. […] Twelve hours later, an additional 37.5 μmol kg was infused over 40 minutes (total dose=75 μmol/kg). Twelve hours after the second dose, the animals were anesthetized with halothane and exsanguinated through the descending aorta. Serum was prepared and liver enzymes (serum glutamic-oxaloacetic transaminase (SGOT), serum glutamic-pyruvic transaminase (SGPT)) and total bilirubin in the serum samples were determined by a commercial laboratory.
# male SA rats [1] = test: anticonvulsant activity, maximal electroshock (MES) model; assay type: in vivo; settings: Rattus norvegicus, ip, 1 h before MES; >5 / <5: fewer / more than 50% of animals inhibited at 5 mg/kg in initial screen
# Method: The anticonvulsant activity of the tested compounds was evaluated in male SA rats (100-150 g, Simonsen) using the maximal electroshock (MES) model described in Swinyard et al., Antiepileptic Drugs, 3d Ed. at 85-102 (Levy, et al., eds.), NY: Raven Press (1989). The rats were maintained on a 12/12 light/dark cycle in temperature controlled facilities with free access to food and water. For p.o. administration, the animals are fasted overnight, prior to the experiment. One hour prior to seizure testing, the animals were injected interperitoneally (ip) or orally (per os, po) with one of various doses of test compound dissolved in DMSO or PEG 400.
# Maximal electroshock seizures (MES) were induced by administering a 150 mA, 60 Hz current for 0.2 seconds via corneal electrodes using a Wahlquist Model H stimulator. […] This endpoint was expressed as the percentage of animals in which the response was inhibited. Typically, compounds were screened initially at one hour following a dose of 5 mg/kg ip. […] The results for exemplary compounds of the invention are set forth in Table 8, expressed as ED50 values.
# Rats (male, Simonsen) = test: formalin paw model; assay type: in vivo, rat; design: concentration or dose not given beside the values; settings: oral, 90 min before formalin; for % Inhibition Phase 1 Composite score: 1.7-5 min post-formalin; for % Inhibition Phase 2 Composite score: 10.3-30 min post-formalin
# Method: In this assay, injection of formalin, an irritant, into the hindpaw of rats typically evokes a biphasic response of pain-related behaviors. Phase 1 of the response which is brief, lasting approximately 0-5 min post-injection,is followed by a more prolonged phase 2, lasting approximately 10-80 min post-injection. Phase 1 behavior is thought to be a direct effect of the irritant on nociceptors at the injection site while phase 2 behavior is thought to include a hyperalgesic component mediated by sensitization of neuronal elements within the spinal cord. Studies from other laboratories have found the first portion of Phase 2 (sometimes referred to as Phase 2a) to be most responsive to pharmacological manipulation.
# Rats (male, Simonsen) weighing between 100-200 g, are used in the present experiments. For screening purposes drugs are administered orally 90 min prior to initiation of formalin test. At designated intervals the animals in groups of 4 are placed individually in a small animal restrainer with the right hindpaw accessible through a hole in the bottom of the restrainer. The formalin paw assay is initiated by the injection using a 30G needle of 50 μl of a 5% formalin solution in saline into the right plantar surface of each hindpaw. The rat is then immediately placed in a separate plexiglass box and scoring (described below) of the animal's behavior is begun at 1.7 min after formalin injection. The instantaneous behavior of each animal in a group of 4 was observed and assigned a score once in each 20 second interval. This sequence is repeated over a 30 min period. The scoring protocol is an adaptation of the method published by Dubuisson and Dennis (Pain 4:161-174, 1977) which assigns a score from 0-3 as follows:
# 0--no discernible favoring of injected paw, weight evenly distributed
# 1--injected paw is favored, rests lightly on floor
# 2--injected paw is elevated
# 3--injected paw is vigorously licked, bitten or shake
# Scores are continuously recorded directly onto an Excel spreadsheet. […] 2) the total number of incidences specifically of licking/biting behavior is summed over Phase 2 and mean values determined from 6 different animals with results expressed as % inhibition compared to vehicle control.
# male SA rats [2] = test: rat skin lesion model, inhibition of neutrophil accumulation induced by carrageenan; assay type: in vivo
# Method: The dorsal skin of male SA rats was shaved and carrageenan (Type λ) or phosphate-buffered saline was injected intradermally. Three hours later, the injection sites were biopsied and weighed. Neutrophil content of the skin biopsies was measured as the quantity of myeloperoxidase (MPO) present in a tissue homogenate. The excised, weighed skin pieces were placed in 4 ml 0.5% mixed alkyl trimethylammonium bromide and homogenized at the highest speed for 15 seconds in a Polytron homogenizer (Brinkmann Instruments, Westbury, N.Y.). Lipids were extracted by adding 1 ml of dichloromethane to the homogenate, vortexing vigorously, and centrifuging at 1000 g, 5° C. for 15 min. Fifty μl of each supernatant was added in duplicate to a 96 well assay plate, along with dilutions of human myeloperoxidase standard. Potassium phosphate buffer (pH 6.1) containing 0.36 mg/ml of o-dianisidine dihydrochloride and 0.001% hydrogen peroxide was added (200 μl/well), and the absorbance at 450 nm was read after 5 min incubation at room temperature. The myeloperoxidase content of each skin piece was calculated from a standard curve constructed using least-square regression, and expressed as units of MPO/g of tissue.
# AK inhibitors were administered orally using polyethylene glycol-400 as vehicle or intraperitoneally using dimethylsulfoxide as vehicle, at indicated time before skin lesion injection. For each experiment, the average of all values from saline-induced lesions was calculated. This baseline value was then subtracted from values obtained from carrageenan-induced lesions. Percent inhibition for AK inhibitors were calculated from these baseline-corrected values.
Compound,Carrageenan Paw (% inh) i.p. (Rats),Carrageenan Paw (% inh) p.o. (Rats),IC50 (adenosine kinase),average serum Total Bilirubin (Female SA rats),average serum content of SGOT (Female SA rats),average serum content of SGPT (Female SA rats),ED50 at 5 mg/kg (male SA rats [1]),further results
"O[C@@H]1[C@H](O)CO[C@H]1n1cc(-c2ccccc2)c2c(Nc3ccc(CCN4CCNCC4)cc3)ncnc21 [#43, 4-N-[4-(2-(1-Piperazino)ethyl)phenyl]amino-5-phenyl-7-(β-D-erythrofuranosyl)pyrrolo[2,3-d]pyrimidine trihydrochloride salt]",65%,34%,3.5 nM,0.1,99,58,,
O[C@@H]1[C@H](O)CO[C@H]1n1cc(-c2ccc(F)cc2)c2c(Nc3ccc(F)cc3)ncnc21 [#29],,,,0.16,130,30,,
Nc1ncnc2c1c(I)cn2[C@@H]1OC[C@@H](O)[C@H]1O [compound 300],90%,91%,6 nM,,,,,
Nc1ncnc2c1c(I)cn2[C@@H]1OC2(CC2)[C@@H](O)[C@H]1O [compound 175],,,600 nM,,,,,
COC[C@]1(CO)O[C@@H](n2cc(-c3ccccc3)c3c(Nc4ccc(F)cc4)ncnc32)[C@H](O)[C@@H]1O [compound 352],,,400 nM,,,,,
COC[C@@]1(CO)O[C@@H](n2cc(-c3ccccc3)c3c(Nc4ccc(F)cc4)ncnc32)[C@H](O)[C@@H]1O [compound 372],,,24 nM,,,,> 5 mg/kg,
CN(C)Cc1ccc(Nc2ncnc3c2c(-c2ccccc2)cn3[C@@H]2O[C@@](C)(CO)[C@@H](O)[C@H]2O)cc1 [compound 64],,,70 nM,,,,> 5 mg/kg,
O[C@@H]1[C@H](O)CO[C@H]1n1cc(-c2ccccc2)c2c(Nc3ccc(CCN4CCOCC4)cc3)ncnc21 [compound 301],21%,39%,1 nM,,,,,
O[C@H]1[C@H](n2cc(-c3ccccc3)c3c(Nc4ccc(F)cc4)ncnc32)OC2(CC2)[C@H]1O [compound 150],78%,80%,0.3 nM,1.58,560,155,0.23 mg/kg,
O[C@@H]1[C@H](O)CO[C@H]1n1cc(-c2ccccc2)c2c(Nc3ccc(Cl)cc3)ncnc21 [compound 299],20%,28%,40 nM,,,,,
OCC1(CO)O[C@@H](n2cc(-c3ccccc3)c3c(Nc4ccccc4)ncnc32)[C@H](O)[C@@H]1O [compound 1],3%,18%,1.2 nM,0.1,65,53,,
C[C@]1(CO)O[C@@H](n2cc(-c3ccccc3)c3c(Nc4ccccc4)ncnc32)[C@H](O)[C@@H]1O [compound 81],,,2000 nM,,,,,
O[C@@H]1[C@H](O)CO[C@H]1n1cc(-c2ccccc2)c2c(Nc3ccccc3)ncnc21 [compound 27],44%,12%,4 nM,0.14,114,41,< 5 mg/kg,"% Inhibition Phase 1 Composite score (Rats (male, Simonsen)): 25.5%; % Inhibition Phase 2 Composite score (Rats (male, Simonsen)): 47.6%; % Inhibition Phase 2. Licking/biting (Rats (male, Simonsen)): 77.5%; % inhibition of neutrophil accumulation (male SA rats [2]; i.p., pretreatment 30 min, 3 mg/kg): 2%; % inhibition of neutrophil accumulation (male SA rats [2]; i.p., pretreatment 30 min, 10 mg/kg): 59%; % inhibition of neutrophil accumulation (male SA rats [2]; i.p., pretreatment 30 min, 30 mg/kg): 89%; % inhibition of neutrophil accumulation (male SA rats [2]; i.p., pretreatment 60 min, 10 mg/kg): 60%; % inhibition of neutrophil accumulation (male SA rats [2]; i.p., pretreatment 120 min, 10 mg/kg): 14%; % inhibition of neutrophil accumulation (male SA rats [2]; i.p., pretreatment 180 min, 10 mg/kg): 2%; % inhibition of neutrophil accumulation (male SA rats [2]; i.p., pretreatment 240 min, 10 mg/kg): 0%; % inhibition of neutrophil accumulation (male SA rats [2]; i.p., pretreatment 360 min, 10 mg/kg): 0%"
NC[C@]1(CO)O[C@@H](n2cc(-c3ccccc3)c3c(Nc4ccc(F)cc4)ncnc32)[C@H](O)[C@@H]1O [compound 392],,,1100 nM,,,,,
O[C@@H]1[C@H](O)CO[C@H]1n1nc(-c2ccc(Cl)cc2)c2c(Nc3ccccc3)ncnc21 [compound 432],24%,15%,90 nM,,,,> 5 mg/kg,
"4-N-Phenylamino-5-phenyl-7-(4-C-methyl-β-D-ribofuranosyl)pyrrolo[2,3- d]pyrimidine [#81]",46%,,45 nM,,,,,"% Inhibition Phase 1 Composite score (Rats (male, Simonsen)): 24.8%; % Inhibition Phase 2 Composite score (Rats (male, Simonsen)): 35.1%; % Inhibition Phase 2. Licking/biting (Rats (male, Simonsen)): 67.8%; % inhibition of neutrophil accumulation (male SA rats [2]; p.o., pretreatment 60 min, 10 mg/kg): 0%; % inhibition of neutrophil accumulation (male SA rats [2]; p.o., pretreatment 60 min, 20 mg/kg): 26%; % inhibition of neutrophil accumulation (male SA rats [2]; p.o., pretreatment 60 min, 30 mg/kg): 40%"

# Reference: patent publication US5763596A, “C-4' modified adenosine kinase inhibitors” (Metabasis Therapeutics, Inc., priority 1996, dated 1998)
